Data published in patent US20230413860A1, “Abscisic Acid-Mixed Pig Feed” (Sumitomo Chemical Company, Limited, priority 2020, published 2023).

Columns and labels:
Format in all cases: in vivo, pig
[1] = Effect of abscisic acid on reducing productivity decrease due to heat stress in young pigs; details: for Feed Conversion Rate (Feed Intake/Body Weight Gain, Average value) / Feed Intake (Average value) / Body Weight Gain (Average value): high temperature (30.6° C.), young pigs; for Body Weight Gain (Average value): age 35 to 70 days
Experimental: Eighty four (84) of crossbred young pigs (LWD) at an age of 28 days were employed in this test. Body weight of the each young pigs was measured and seven animals were assigned to one section considering the average body weight across the sections was equal, and the three sections (replicates) were assigned to a total four test groups. The test period was from 28 to 70 day-old, and S-abscisic acid was used as a test substance. The S-ABA was added to the feed at the concentrations shown in the Table 6, and the feed containing S-ABA was fed daily to the pigs at the age of 28 to 70 days. The high temperature environment was carried out from the age of 36 to 70 days of the pigs.
The following four groups were set. Three sections (repetitions) per one group was set, which were assigned to each test group as indicated in the below Table.
(§1) The pigs were raised at the optimal temperature from the age of 28 to 35 day-old. After the age of 36 days the pigs of the Test group 1 were housed at an optimal temperature and the pigs of the Test groups 2 to 4 were exposed to a particular high temperature by air conditioner. The raising temperature were measured with a thermo-hygrometer or a data logger which was installed near the center of the raising room, and then recorded. The average room temperature of the optimal temperature group was 26.1° C., and the average room temperature of the […] temperature group was 30.6° C.
(§2) As a feed, similarly to the test example 1, an early feed, middle feed or late feed of MAMACOLO which was manufactured by FEED ONE CO., LTD. (2-6, Higashifukasiba Kamisu-shi, Ibaraki) was given by ad libitum feeding. A drinking water was freely ingested by a waterer with a picker. The early feed was given until the age of 35 days of the pig, the middle feed was given at the age of from 36 days to 42 days, and the late feed was given at the age of post 43 days.
• (i) Clinical symptoms: observed daily. • (ii) Body weight: Body weight was measured for each individual at the age of 28, 35 and 70 days old, and the average weight gain per a section from the age of 35 to 70 days during the test period was calculated. • (iii) Feed intake: Feed intake was measured daily by each section, and feed intake for one animal per a week was calculated. Also, feed conversion rate (feed intake/body weight gain) was calculated from “Average feed intake” and “Average body weight gain per section” during the test period.

[2] = Effect of abscisic acid on reducing productivity decrease due to cold stress in young pigs; details: for Feed Conversion Rate (Feed Intake/Body Weight Gain, Average value) / Feed Intake (Average value) / Body Weight Gain (Average value): low temperature (20.4° C.), young pigs; for Body Weight Gain (Average value): age 35 to 70 days
Experimental: Eighty four (84) crossbred young pigs (LWD) at an age of 28 days were employed in this test. Body weight of the each young pigs was measured and seven animals were assigned to one section considering the average body weight across the sections was equal, and the three sections (replicates) were assigned to a total four test groups. The test period was from 28 to 70 day-old, and S-abscisic acid was (hereinafter, referred to as “S-ABA”) used as a test substance. The S-ABA was added to the feed at the concentrations shown in Table 1, and the feed containing S-ABA was fed daily to the pigs at the age of 28 to 70 days. The low temperature environment was carried out from the age of 36 to 70 days of the pigs.
The following four groups were set.
as §1, with “days,” for “days”, “low” for “high”, “20.4°” for “30.6°”
as §2, with “feed,” for “feed, similarly to the test example 1,”
• (i) Clinical symptoms: observed daily. • (ii) Body weight: Body weight was measured for each individual at the age of 28, 35 and 70 days old, and the average weight gain per a section from the age of 35 to 70 days during the test period was calculated. • (iii) Feed intake: Feed intake was measured daily for each section, and feed intake for one animal per a week was calculated. Also, feed conversion rate (feed intake/body weight gain) was calculated from “Average feed intake” and “Average body weight gain per section” during the test period.

reduced glutathione = assay: Effect of abscisic acid on increasing production of reduced glutathione in small intestine of gilts
Excerpt: Twelve (12) of gilts at an age of 8 months were employed in this test. The S-ABA (particle size of 0.1 to 1 mm) in the amounts as shown in Table 11 was supplemented in the feed for about 40 days from the day of artificial insemination.
• (i) Clinical symptoms: observed daily. • (ii) Sampling of intestinal tracts: The pig was dissected on the 40th day of pregnancy, and the small intestine was sampled.
The measurement results of reduced glutathione in a small intestine after the administration for about 40 days are shown in Table 12. Using a commercially available glutathione measuring kit (manufactured by DOJINDO CHEMICALS Inc.; […]), the reduced glutathione contained in 1 g of small intestine tissue was determined quantitatively.

For `CC1=CC(=O)CC(C)(C)[C@@]1(O)/C=C/C(C)=C\C(=O)O` [ABA, (S)-(+)-abscisic acid], the Clinical symptoms ([1]; 0.1, 0.5 or 1 ppm in feed, age 28 to 70 days, observed daily, high temperature) was “No abnormality was seen”, the “Feed Conversion Rate (Feed Intake/Body Weight Gain, Average value)” value ([1]; 0.1 ppm ABA in feed) was 4.54 and the “Feed Intake (Average value)” value ([1]; 0.1 ppm ABA in feed) was 30.7 kg. For the same compound, the “Body Weight Gain (Average value)” value ([1]; 0.1 ppm ABA in feed) was 18.04 kg, the “Feed Conversion Rate (Feed Intake/Body Weight Gain, Average value)” value ([1]; 0.5 ppm ABA in feed) was 4.25 and the “Feed Intake (Average value)” value ([1]; 0.5 ppm ABA in feed) was 29.7 kg. The “Body Weight Gain (Average value)” value ([1]; 0.5 ppm ABA in feed) was 18.25 kg, the “Feed Conversion Rate (Feed Intake/Body Weight Gain, Average value)” value ([1]; 1.0 ppm ABA in feed) was 3.91 and the “Feed Intake (Average value)” value ([1]; 1.0 ppm ABA in feed) was 32.9 kg. The “Body Weight Gain (Average value)” value ([1]; 1.0 ppm ABA in feed) was 19.02 kg, the Clinical symptoms ([2]; 0.1, 0.5 or 1 ppm in feed, age 28 to 70 days, observed daily, low temperature) was “No abnormality was seen” and the “Feed Conversion Rate (Feed Intake/Body Weight Gain, Average value)” value ([2]; 0.1 ppm ABA in feed) was 4.40. For the same compound, the “Feed Intake (Average value)” value ([2]; 0.1 ppm ABA in feed) was 29.81 kg, the “Body Weight Gain (Average value)” value ([2]; 0.1 ppm ABA in feed) was 16.99 kg and the “Feed Conversion Rate (Feed Intake/Body Weight Gain, Average value)” value ([2]; 0.5 ppm ABA in feed) was 4.29. For the same compound, the “Feed Intake (Average value)” value ([2]; 0.5 ppm ABA in feed) was 29.91 kg, the “Body Weight Gain (Average value)” value ([2]; 0.5 ppm ABA in feed) was 16.40 kg and the “Feed Conversion Rate (Feed Intake/Body Weight Gain, Average value)” value ([2]; 1.0 ppm ABA in feed) was 4.41. The “Feed Intake (Average value)” value ([2]; 1.0 ppm ABA in feed) was 30.30 kg, the “Body Weight Gain (Average value)” value ([2]; 1.0 ppm ABA in feed) was 17.00 kg and the “Reduced glutathione in small intestine tissue compared to the no dosing S-ABA group” value (reduced glutathione; 10 ppm S-ABA in feed for about 40 days) was “increased amount of reduced glutathione in small intestine tissue significantly”. For the same compound, the “Reduced glutathione Amount” value (reduced glutathione; 10 ppm S-ABA in feed for about 40 days from artificial insemination, small intestine tissue) was 0.234 μmol/g wet tissue and the Clinical symptoms (reduced glutathione; 10 ppm S-ABA in feed for about 40 days, observed daily) was “No abnormality was seen”.
